Measurements as given in PubChem BioAssay (NCI).
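Compound exposure: 48 hours, 5 concentrations, 96-well plates. GI50 = concentration required for 50% inhibition of growth. TGI denotes the concentration required for complete inhibition of growth.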

Columns and labels:
Experiment in all cases: growth of human tumour cells (NCI), 48 h
[1] = system: 786-0 renal
[2] = system: A498 renal
[3] = system: A549 NSCLC
[4] = system: ACHN renal
[5] = system: BT-549 breast
[6] = system: CAKI-1 renal
[7] = system: CCRF-CEM leukemia
[8] = system: COLO 205 colon
[9] = system: DU-145 prostate
[10] = system: EKVX NSCLC
[11] = system: HCC-2998 colon
[12] = system: HCT-116 colon
[13] = system: HCT-15 colon
[14] = system: HL-60(TB) leukemia
[15] = system: HOP-62 NSCLC
[16] = system: HOP-92 NSCLC
[17] = system: HS 578T breast
[18] = system: HT29 colon
[19] = system: IGROV1 ovarian
[20] = system: K-562 leukemia
[21] = system: KM12 colon
[22] = system: LOX IMVI melanoma
[23] = system: M14 melanoma
[24] = system: MALME-3M melanoma
[25] = system: MCF7 breast
[26] = system: MDA-MB-231 breast
[27] = system: MDA-MB-435
[28] = system: MOLT-4 leukemia
[29] = system: NCI-H226 lung
[30] = system: NCI-H23 lung
[31] = system: NCI-H460 lung
[32] = system: NCI-H522 lung
[33] = system: NCI/ADR-RES ovarian
[34] = system: OVCAR-3 ovarian
[35] = system: OVCAR-4 ovarian
[36] = system: OVCAR-5 ovarian
[37] = system: OVCAR-8 ovarian
[38] = system: PC-3 prostate
[39] = system: RPMI-8226 leukemia
[40] = system: RXF 393 renal
[41] = system: SF-268 CNS
[42] = system: SF-295 CNS
[43] = system: SF-539 CNS
[44] = system: SK-MEL-2 melanoma
[45] = system: SK-MEL-28 melanoma
[46] = system: SK-MEL-5 melanoma
[47] = system: SK-OV-3 ovarian
[48] = system: SN12C renal
[49] = system: SNB-19 CNS
[50] = system: SNB-75 CNS
[51] = system: SW-620 colon
[52] = system: T-47D breast
[53] = system: TK-10 renal
[54] = system: U251 CNS
[55] = system: UACC-257 melanoma
[56] = system: UACC-62 melanoma
[57] = system: UO-31 renal

C=C(C)[C@@H]1CC[C@]2(COC(C)=O)CC[C@]3(C)[C@H](CC[C@@H]4[C@@]5(C)CCCN(C(C)=O)C(C)(C)[C@@H]5CC[C@]43C)[C@@H]12
GI50 [1]: 1750 nM
TGI [1]: 3220 nM
GI50 [2]: 9840 nM
TGI [2]: 23400 nM
GI50 [3]: 1690 nM
TGI [3]: 3230 nM
GI50 [4]: 1700 nM
TGI [4]: 3070 nM
GI50 [5]: 2410 nM
TGI [5]: 6410 nM
GI50 [6]: 1580 nM
TGI [6]: 2960 nM
GI50 [7]: 1870 nM
TGI [7]: 4950 nM
GI50 [8]: 1190 nM
TGI [8]: 2550 nM
GI50 [9]: 1750 nM
TGI [9]: 3290 nM
GI50 [10]: 1580 nM
TGI [10]: 3200 nM
GI50 [11]: 1670 nM
TGI [11]: 3160 nM
GI50 [12]: 1770 nM
TGI [12]: 3310 nM
GI50 [13]: 1650 nM
TGI [13]: 3050 nM
GI50 [14]: 1900 nM
TGI [14]: 3820 nM
GI50 [15]: 1690 nM
TGI [15]: 3160 nM
GI50 [16]: 1310 nM
TGI [16]: 2700 nM
GI50 [17]: 1850 nM
TGI [17]: 4050 nM
GI50 [18]: 1520 nM
TGI [18]: 2950 nM
GI50 [19]: 1810 nM
TGI [19]: 3370 nM
GI50 [20]: 1580 nM
TGI [20]: 4140 nM
GI50 [21]: 1830 nM
TGI [21]: 3420 nM
GI50 [22]: 1450 nM
TGI [22]: 2760 nM
GI50 [23]: 1900 nM
TGI [23]: 3920 nM
GI50 [24]: 1570 nM
TGI [24]: 3050 nM
GI50 [25]: 1450 nM
TGI [25]: 3130 nM
GI50 [26]: 1750 nM
TGI [26]: 3460 nM
GI50 [27]: 1480 nM
TGI [27]: 2850 nM
GI50 [28]: 1840 nM
TGI [28]: 4200 nM
GI50 [29]: 2200 nM
TGI [29]: 5040 nM
GI50 [30]: 1890 nM
TGI [30]: 3530 nM
GI50 [31]: 1900 nM
TGI [31]: 3720 nM
GI50 [32]: 1650 nM
TGI [32]: 3240 nM
GI50 [33]: 1890 nM
TGI [33]: 3680 nM
GI50 [34]: 1930 nM
TGI [34]: 3750 nM
GI50 [35]: 1570 nM
TGI [35]: 3130 nM
GI50 [36]: 1660 nM
TGI [36]: 3190 nM
GI50 [37]: 1840 nM
TGI [37]: 3420 nM
GI50 [38]: 1580 nM
TGI [38]: 3230 nM
GI50 [39]: 1980 nM
TGI [39]: 4190 nM
GI50 [40]: 1590 nM
TGI [40]: 3020 nM
GI50 [41]: 3370 nM
TGI [41]: 13500 nM
GI50 [42]: 1690 nM
TGI [42]: 3120 nM
GI50 [43]: 1670 nM
TGI [43]: 3060 nM
GI50 [44]: 1880 nM
TGI [44]: 3540 nM
GI50 [45]: 1820 nM
TGI [45]: 3330 nM
GI50 [46]: 1780 nM
TGI [46]: 3190 nM
GI50 [47]: 1970 nM
TGI [47]: 4190 nM
GI50 [48]: 1750 nM
TGI [48]: 3330 nM
GI50 [49]: 1810 nM
TGI [49]: 3270 nM
GI50 [50]: 1480 nM
TGI [50]: 2880 nM
GI50 [51]: 1750 nM
TGI [51]: 3470 nM
GI50 [52]: 1630 nM
TGI [52]: 3220 nM
GI50 [53]: 1710 nM
TGI [53]: 3180 nM
GI50 [54]: 1690 nM
TGI [54]: 3150 nM
GI50 [55]: 1740 nM
TGI [55]: 3310 nM
GI50 [56]: 1790 nM
TGI [56]: 3230 nM
GI50 [57]: 1380 nM
TGI [57]: 2680 nM
